Test results as given in US10973863B2, “Method for regulating, preventing and/or treating pulmonary injury” (SINPHAR PHARMACEUTICAL CO., LTD., priority 2017, dated 2021).

Legend:
active-form MMP-9 = assay: Western blot: active-form MMP-9 expression in LPS-treated NR8383 cells; format: cell-based, rat; conditions: 0.01 μg/mL LPS; 12.5 μg/mL; 24 hours; vs control group
Method: (§1) Rat alveolar macrophage NR8383 cells were divided into six groups and separately cultivated with the following media for 24 hours: • (1) Control group: a macrophage growth medium containing 0.01 μg/mL LPS; • (2) Positive control group: a macrophage growth medium containing 0.01 μg/mL LPS and 1 μM Dex; and • (3) Extract A group (including four sub-groups): a macrophage growth medium containing 0.01 μg/mL LPS and the extract A provided by [preparation example A-2-2], wherein the extract A is present in the four sub-groups at a concentration of 6.25, 12.5, 25 and 50 μg/mL respectively.
(§2) Thereafter, the proteins in the cells of each group were extracted and then subjected to a Western blot to measure the expression level of pro-form MMP-9 (i.e., the zymogen form of MMP-9), active-form MMP-9 and MMP-12. The relative expression level of pro-form MMP-9, active-form MMP-9 and MMP-12 of each group was calculated by using the results of the control group as a basis (i.e., the expression level of control group was served as 1-fold).
(§3) Rat alveolar macrophage NR8383 cells were divided into ten groups and separately cultivated with the following media for 24 hours:
(§4) (1) Control group: a macrophage growth medium containing 0.01 μg/mL LPS;
(§5) (2) Positive control group: a macrophage growth medium containing 0.01 μg/mL LPS and 1 μM Dex; […]

MMP-12 = assay: Western blot: MMP-12 expression in LPS-treated NR8383 cells; format: cell-based, rat; conditions: 0.01 μg/mL LPS; 12.5 μg/mL; 24 hours; vs control group
Method: as §1, §2, §3, §4, §5

pro-form MMP-9 = assay: Western blot: pro-form MMP-9 expression in LPS-treated NR8383 cells; format: cell-based, rat; conditions: 0.01 μg/mL LPS; 12.5 μg/mL; 24 hours; vs control group
Method: as §1, §2, §3, §4, §5

MMP-9 = assay: Gelatin zymography: LPS-activated active expression of MMP-9 in NR8383 cells; format: cell-based, rat; conditions: Table 4, LPS 1 μg/mL, 24 hours
From the text: As indicated above, when an inflammatory response occurs in animal's pulmonary tissue, the active inflammatory cells will secret MMPs that will destroy the pulmonary tissue structure, cause more serious pulmonary injury, and lead to the decrement in or the loss of pulmonary functions. […]
Thereafter, the medium of each group was collected and respectively subjected to the following procedures. A 10% polyacrylamide gel containing 0.2% gelatin was used to carry out the sodium dodecyl sulfate polyacrylamide gel electrophoresis (SDS-PAGE). After the electrophoresis was completed, the gel was sequentially soaked in 2.5% Triton X-100 solution for 90 minutes to remove SDS, soaked in distillation-distillation water (ddH2O) for 30 minutes, and placed in a reaction solution (50 mM Tris-HCl buffer containing 10 mM CaCl2 and 0.02% NaN3) at a temperature of 37° C. for 18 hours. After the foregoing reaction was completed, the gel was stained by a Coomassie blue staining solution, and the image of stained gel was taken and subjected to an image analysis. The image intensity (the image intensity was calculated based on the size of area and the shade of color) of highlight band (i.e., the gelatin in this area was degraded by MMPs, wherein the area locating around 95 kD molecular weight) on the gel of each group can reflect the active expression of MMP-9 of rat alveolar macrophage NR8383 cells under different conditions (the relative active expression of MMP-9 was calculated by serving the results of the blank group as 0% and serving that of the control group as 100%).
Rat alveolar macrophage NR8383 cells were divided into twenty-eight groups and separately cultivated with the following media for 24 hours: • (1) Blank group: a macrophage growth medium; • (2) Control group: a macrophage growth medium containing 1 μg/mL LPS; • (3) Positive control group: a macrophage growth medium containing 1 μg/mL LPS and 5 μM Prednisolone (a type of corticosteroid; abbreviated as “Pred”; purchased from Sigma-Aldrich); • (4) Extract C (including five sub-groups): a macrophage growth medium containing 1 μg/mL LPS and the extract C provided by [preparation example A-3-2], wherein the extract C is present in the five sub-groups at a concentration of […] respectively; • (5) Extract D (including five sub-groups): a macrophage growth medium containing 1 μg/mL UPS and the extract D provided by [preparation example A-4-2], wherein the extract D is present in the five sub-groups at a concentration of 0.78, 1.56, 3.13, 6.25 and 12.5 respectively; • (6) Extract E (including five sub-groups): a macrophage growth medium containing 1 μg/mL LPS and the extract E provided from [preparation example A-4-3], wherein the extract E is present in the five sub-groups at a concentration of 0.78, 1.56, 3.13, […], and 12.5 respectively; • (7) DATA group (including five sub-groups): a macrophage growth medium containing 1 μg/mL LPS and the dehydrotrametenolic acid (DTTA) provided by [preparation example C-1], wherein the dehydrotrametenolic acid (DTTA) is present in the five sub-groups at a concentration of 0.39, 0.78, 1.56, 3.13 and 6.25 μg/mL respectively; and • (8) PAA group (including live sub-groups): a macrophage growth medium containing 1 μg/mL LPS and the poricoic acid A (PAA) provided from [preparation example C-1], wherein the poricoic acid A (PAA) is present in the five sub-groups at a concentration of 6.25, 12.5, 25, 50 and 100 respectively.
Thereafter, the medium of each group was collected and analyzed by the analyzing procedures same as that of (1-1).

Mucin 5AC = assay: Western blot: LPS-induced expression of Mucin 5AC in NCI-H929 cells; format: cell-based, human; conditions: 1 μg/mL LPS, 24 hours, vs control group
From the text: As indicated above, the hypersecretion of mucus in airway can be observed in the patients suffering from pulmonary injury-related diseases, such as chronic obstructive pulmonary disease and emphysema, and the mucus hypersecretion is associated with the overexpression of mucins in pulmonary tissue. Symptoms like the increased sputum production will occur in the patients suffering from the mucin hypersecretion in airway, and the increased sputum will accumulate in the airway and lung, thereby making the airway narrow and increasing respiratory resistance. To investigate the effects of active ingredients of FU-LING extract in regulating, preventing, and/or treating the pulmonary injury-related diseases, such as chronic obstructive pulmonary disease and emphysema, a Western blot was conducted to measure the inhibitory rate of active ingredients of FU-LING extract (tumulosic acid and poricoic acid A) on the LPS-induced expression of Mucin 5AC in human lung epithelial NCI-H929 cells.
Human lung epithelial NCI-H929 cells were divided into ten groups and separately cultivated with the following media for 24 hours:
(1) Control group: an epithelial cell growth medium containing […];
(2) Positive control group: an epithelial cell growth medium containing 1 μg/mL LPS and 10 μM Dex;
(3) TA group (including four sub-groups): an epithelial cell growth medium containing […] the tumulosic acid (TA) provided by [preparation example C-1], wherein the tumulosic acid (TA) is present in the four sub-groups at a concentration of 1.56, 3.13, 6.25 and 12.5 μg/mL respectively; and
(4) PAA group (including four sub-groups): an epithelial cell growth medium containing 1 μg/mL LPS the poricoic acid A (PAA) provided by [preparation example C-1], wherein the poricoic acid A (PAA) is present in the four sub-groups at a concentration of 6.25, 12.5, 25 and 50 μg/mL respectively.
as §2, with “Mucin 5AC.” for “pro-form MMP-9 (i.e., the zymogen form of MMP-9), active-form MMP-9 and MMP-12.”, “Mucin 5AC” for “pro-form MMP-9, active-form MMP-9 and MMP-12”

C=C(CC[C@@H](C(=O)O)[C@H]1[C@H](O)C[C@@]2(C)C3=C(CC[C@]12C)[C@@]1(C)CC[C@H](O)C(C)(C)[C@@H]1CC3)C(C)C [TA, tumulosic acid]
Inhibitory rate on the expression level of active-form MMP-9 (active-form MMP-9): 100%
Inhibitory rate on the expression level of MMP-12 (MMP-12): 45%
Inhibitory rate on the expression level of pro-form MMP-9 (pro-form MMP-9): 53%
Relative active expression of MMP-9 (%) (MMP-9; 3.13 μg/mL): 60.6%
Relative active expression of MMP-9 (%) (MMP-9; 6.25 μg/mL): 28.4%
Relative active expression of MMP-9 (%) (MMP-9; 12.5 μg/mL): 0%
Inhibitory rate on LPS-induced expression of Mucin 5AC (Mucin 5AC; 1.56 μg/mL (low-dose)): up to 75%
Inhibitory rate on LPS-induced expression of Mucin 5AC (Mucin 5AC; 12.5 μg/mL (high-dose)): ≤ 81%
